Experiments:
Melanocortin receptor 5 = Melanocortin receptor 5 (Homo sapiens, UniProt P33032); assay type: cell membranes, HEK293, Membrane; conditions: hek293; note: in other assays of this panel Not Active means under 50% inhibition at 10 µM
[1] = DRUGMATRIX: Tumor Necrosis Factor (TNF), Non-Selective radioligand binding (ligand: [125I] TNF-alpha); assay type: cell membranes, Membrane; conditions: u-937; Not Active = under 50% inhibition at 10 µM
Adenosine receptor A1 = biological target: T1, Adenosine receptor A1 (Homo sapiens, UniProt P30542); assay type: cell membranes, CHO, Membrane; conditions: cho;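 note: radioligand binding assay at the adenosine A1 receptor, with DPCPX serving as the labelled ligand; in other assays of this panel Not Active means under 50% inhibition at 10 µM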
T1 sequence (P30542 whole entry): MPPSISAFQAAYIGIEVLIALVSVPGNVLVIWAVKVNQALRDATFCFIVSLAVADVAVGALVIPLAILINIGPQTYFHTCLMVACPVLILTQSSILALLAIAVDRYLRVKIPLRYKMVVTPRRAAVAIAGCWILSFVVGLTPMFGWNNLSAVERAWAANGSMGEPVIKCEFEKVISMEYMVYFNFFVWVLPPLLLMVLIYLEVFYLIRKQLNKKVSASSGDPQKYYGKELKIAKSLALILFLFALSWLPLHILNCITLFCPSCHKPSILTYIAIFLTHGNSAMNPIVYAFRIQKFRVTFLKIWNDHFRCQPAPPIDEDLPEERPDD

[2] = DRUGMATRIX: Atrial Natriuretic Factor (ANF) radioligand binding (ligand: [125I] ANF (rat)); assay type: cell membranes, Cavia porcellus, Dunkin-Hartley, Adrenal gland, Membrane; conditions: Not Active = under 50% inhibition at 10 µM
Adenosine receptor A3 = biological target: T2, Adenosine receptor A3 (Homo sapiens, UniProt P0DMS8); assay type: cell membranes, CHO-K1, Membrane; conditions: cho-k1;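 note: radioligand binding assay with AB-MECA serving as the labeled ligand; in other assays of this panel Not Active means under 50% inhibition at 10 µM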
T2 sequence (P0DMS8 whole entry): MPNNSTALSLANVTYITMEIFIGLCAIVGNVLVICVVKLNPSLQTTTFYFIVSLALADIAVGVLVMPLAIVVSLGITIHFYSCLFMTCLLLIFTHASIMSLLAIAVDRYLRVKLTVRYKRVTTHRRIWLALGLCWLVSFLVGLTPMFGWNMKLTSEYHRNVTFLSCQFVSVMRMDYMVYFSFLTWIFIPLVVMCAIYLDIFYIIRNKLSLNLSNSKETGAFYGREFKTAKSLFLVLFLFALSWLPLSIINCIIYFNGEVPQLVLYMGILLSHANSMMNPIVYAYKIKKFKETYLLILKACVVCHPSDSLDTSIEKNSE

Cytochrome P450 2E1 = Cytochrome P450 2E1 (Homo sapiens, UniProt P05181); conditions: bti-tn-5b1-4; note: in other assays of this panel Not Active means under 50% inhibition at 10 µM
[3] = DRUGMATRIX: Interleukin IL-1 radioligand binding (ligand: [125I] interleukin 1beta); assay type: cell membranes, Membrane; conditions: nih3t3; Not Active = under 50% inhibition at 10 µM

Sequence of Cytochrome P450 2E1 (P05181 whole entry): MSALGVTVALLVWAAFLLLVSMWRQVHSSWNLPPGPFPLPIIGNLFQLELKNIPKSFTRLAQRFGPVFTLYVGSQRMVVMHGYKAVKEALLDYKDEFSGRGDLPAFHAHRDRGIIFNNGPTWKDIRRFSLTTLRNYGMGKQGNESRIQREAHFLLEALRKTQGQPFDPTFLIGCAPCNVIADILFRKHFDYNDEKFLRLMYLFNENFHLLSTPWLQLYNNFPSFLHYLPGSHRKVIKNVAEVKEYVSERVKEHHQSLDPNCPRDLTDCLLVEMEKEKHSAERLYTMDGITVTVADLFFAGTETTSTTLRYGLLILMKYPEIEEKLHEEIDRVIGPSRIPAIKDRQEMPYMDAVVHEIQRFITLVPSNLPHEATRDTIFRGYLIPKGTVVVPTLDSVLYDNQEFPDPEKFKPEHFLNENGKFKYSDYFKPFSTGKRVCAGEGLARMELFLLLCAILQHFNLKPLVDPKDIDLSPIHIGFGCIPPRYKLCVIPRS
Sequence of Melanocortin receptor 5 (P33032 whole entry): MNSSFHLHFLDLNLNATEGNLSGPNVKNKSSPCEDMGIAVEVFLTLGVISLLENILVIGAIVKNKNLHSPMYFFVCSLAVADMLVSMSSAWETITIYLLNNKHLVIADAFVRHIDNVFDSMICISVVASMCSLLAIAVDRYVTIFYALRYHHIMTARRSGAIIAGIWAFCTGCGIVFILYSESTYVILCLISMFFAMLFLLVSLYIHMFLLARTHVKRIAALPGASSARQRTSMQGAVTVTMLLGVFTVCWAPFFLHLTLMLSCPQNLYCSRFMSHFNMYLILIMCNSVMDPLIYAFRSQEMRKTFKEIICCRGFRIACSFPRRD

OC(Cn1cncn1)(Cn1cncn1)c1ccc(F)cc1F [FLUCONAZOLE]
Not Active: IC50 (Melanocortin receptor 5) | IC50 [1] | Ki [1] | IC50 (Adenosine receptor A1) | IC50 [2] | Ki [2] | IC50 (Adenosine receptor A3) | IC50 (Cytochrome P450 2E1) | Ki (Cytochrome P450 2E1) | IC50 [3] | Ki [3]

CC(C)C(=O)Nc1ccc([N+](=O)[O-])c(C(F)(F)F)c1 [FLUTAMIDE]
Not Active: IC50 (Melanocortin receptor 5) | IC50 [1] | Ki [1] | IC50 (Adenosine receptor A1) | IC50 [2] | Ki [2] | IC50 (Adenosine receptor A3) | IC50 (Cytochrome P450 2E1) | Ki (Cytochrome P450 2E1) | IC50 [3] | Ki [3]

CC1(C)O[C@@H]2C[C@H]3[C@@H]4CCC5=CC(=O)CC[C@]5(C)[C@@]4(F)[C@@H](O)C[C@]3(C)[C@]2(C(=O)CCl)O1 [HALCINONIDE]
Not Active: IC50 (Melanocortin receptor 5) | IC50 [1] | Ki [1] | IC50 (Adenosine receptor A1) | IC50 [2] | Ki [2] | IC50 (Adenosine receptor A3) | IC50 (Cytochrome P450 2E1) | Ki (Cytochrome P450 2E1) | IC50 [3] | Ki [3]

O=c1[nH]c(=O)n([C@H]2C[C@H](O)[C@@H](CO)O2)cc1I [IDOXURIDINE]
Not Active: IC50 (Melanocortin receptor 5) | IC50 [1] | Ki [1] | IC50 (Adenosine receptor A1) | IC50 [2] | Ki [2] | IC50 (Adenosine receptor A3) | IC50 (Cytochrome P450 2E1) | Ki (Cytochrome P450 2E1) | IC50 [3] | Ki [3]

CC1Cc2ccccc2N1NC(=O)c1ccc(Cl)c(S(N)(=O)=O)c1 (centres undefined) [INDAPAMIDE]
Not Active: IC50 (Melanocortin receptor 5) | IC50 [1] | Ki [1] | IC50 (Adenosine receptor A1) | IC50 [2] | Ki [2] | IC50 (Adenosine receptor A3) | IC50 (Cytochrome P450 2E1) | Ki (Cytochrome P450 2E1) | IC50 [3] | Ki [3]

Nc1nc(N)nc(-c2cc(Cl)ccc2Cl)n1.O=C(O)/C=C\C(=O)O [IRSOGLADINE MALEATE]
Not Active: IC50 (Melanocortin receptor 5) | IC50 [1] | Ki [1] | IC50 (Adenosine receptor A1) | IC50 [2] | Ki [2] | IC50 (Adenosine receptor A3) | IC50 (Cytochrome P450 2E1) | Ki (Cytochrome P450 2E1) | IC50 [3] | Ki [3]

CCC(C)n1ncn(-c2ccc(N3CCN(c4ccc(OCC5COC(Cn6cncn6)(c6ccc(Cl)cc6Cl)O5)cc4)CC3)cc2)c1=O (centres undefined) [ITRACONAZOLE]
Not Active: IC50 (Melanocortin receptor 5) | IC50 [1] | Ki [1] | IC50 (Adenosine receptor A1) | IC50 [2] | Ki [2] | IC50 (Adenosine receptor A3) | IC50 (Cytochrome P450 2E1) | Ki (Cytochrome P450 2E1) | IC50 [3] | Ki [3]

CCCCN1CCCC[C@H]1C(=O)Nc1c(C)cccc1C [LEVOBUPIVACAINE]
Not Active: IC50 (Melanocortin receptor 5) | IC50 [1] | Ki [1] | IC50 (Adenosine receptor A1) | IC50 [2] | Ki [2] | IC50 (Adenosine receptor A3) | IC50 (Cytochrome P450 2E1) | Ki (Cytochrome P450 2E1) | IC50 [3] | Ki [3]

CCCCc1nc(Cl)c(CO)n1Cc1ccc(-c2ccccc2-c2nnn[nH]2)cc1 [LOSARTAN]
Not Active: IC50 (Melanocortin receptor 5) | IC50 [1] | Ki [1] | IC50 (Adenosine receptor A1) | IC50 [2] | Ki [2] | IC50 (Adenosine receptor A3) | IC50 (Cytochrome P450 2E1) | Ki (Cytochrome P450 2E1) | IC50 [3] | Ki [3]

Sc1ncnc2nc[nH]c12 [MERCAPTOPURINE ANHYDROUS]
Not Active: IC50 (Melanocortin receptor 5) | IC50 [1] | Ki [1] | IC50 (Adenosine receptor A1) | IC50 [2] | Ki [2] | IC50 (Adenosine receptor A3) | IC50 (Cytochrome P450 2E1) | Ki (Cytochrome P450 2E1) | IC50 [3] | Ki [3]

C[C@](N)(Cc1ccc(O)c(O)c1)C(=O)O [METHYLDOPA]
Not Active: IC50 (Melanocortin receptor 5) | IC50 [1] | Ki [1] | IC50 (Adenosine receptor A1) | IC50 [2] | Ki [2] | IC50 (Adenosine receptor A3) | IC50 (Cytochrome P450 2E1) | Ki (Cytochrome P450 2E1) | IC50 [3] | Ki [3]

C[C@]12CCC(=O)C=C1CC[C@@H]1[C@@H]2CC[C@@]2(C)[C@H]1CC[C@]2(C)O [METHYLTESTOSTERONE]
Not Active: IC50 (Melanocortin receptor 5) | IC50 [1] | Ki [1] | IC50 (Adenosine receptor A1) | IC50 [2] | Ki [2] | IC50 (Adenosine receptor A3) | IC50 (Cytochrome P450 2E1) | Ki (Cytochrome P450 2E1) | IC50 [3] | Ki [3]

Cc1ccccc1N1C(=O)c2cc(S(N)(=O)=O)c(Cl)cc2NC1C (centres undefined) [METOLAZONE]
Not Active: IC50 (Melanocortin receptor 5) | IC50 [1] | Ki [1] | IC50 (Adenosine receptor A1) | IC50 [2] | Ki [2] | IC50 (Adenosine receptor A3) | IC50 (Cytochrome P450 2E1) | Ki (Cytochrome P450 2E1) | IC50 [3] | Ki [3]

COCCc1ccc(OCC(O)CNC(C)C)cc1 (centres undefined) [METOPROLOL]
Not Active: IC50 (Melanocortin receptor 5) | IC50 [1] | Ki [1] | IC50 (Adenosine receptor A1) | IC50 [2] | Ki [2] | IC50 (Adenosine receptor A3) | IC50 (Cytochrome P450 2E1) | Ki (Cytochrome P450 2E1) | IC50 [3] | Ki [3]

CCn1cc(C(=O)O)c(=O)c2cc(F)c(N3CCNCC3)cc21 [NORFLOXACIN]
Not Active: IC50 (Melanocortin receptor 5) | IC50 [1] | Ki [1] | IC50 (Adenosine receptor A1) | IC50 [2] | Ki [2] | IC50 (Adenosine receptor A3) | IC50 (Cytochrome P450 2E1) | Ki (Cytochrome P450 2E1) | IC50 [3] | Ki [3]

NC1=NC(=O)C(c2ccccc2)O1 (centres undefined) [PEMOLINE]
Not Active: IC50 (Melanocortin receptor 5) | IC50 [1] | Ki [1] | IC50 (Adenosine receptor A1) | IC50 [2] | Ki [2] | IC50 (Adenosine receptor A3) | IC50 (Cytochrome P450 2E1) | Ki (Cytochrome P450 2E1) | IC50 [3] | Ki [3]

Nc1nc2c(ncn2CCC(CO)CO)c(=O)[nH]1 [PENCICLOVIR]
Not Active: IC50 (Melanocortin receptor 5) | IC50 [1] | Ki [1] | IC50 (Adenosine receptor A1) | IC50 [2] | Ki [2] | IC50 (Adenosine receptor A3) | IC50 (Cytochrome P450 2E1) | Ki (Cytochrome P450 2E1) | IC50 [3] | Ki [3]

C=C(C)C1(O)OC(=O)C=C1OC (centres undefined) [PENICILLIC ACID]
Not Active: Ki (Melanocortin receptor 5) | IC50 [1] | Ki [1] | IC50 (Adenosine receptor A1) | IC50 [2] | Ki [2] | IC50 (Adenosine receptor A3) | IC50 (Cytochrome P450 2E1) | Ki (Cytochrome P450 2E1) | IC50 [3] | Ki [3]

CCCN1C[C@H](CSC)C[C@@H]2c3cccc4[nH]cc(c34)C[C@H]21 [PERGOLIDE]
Not Active: IC50 (Melanocortin receptor 5) | IC50 [1] | Ki [1] | IC50 (Adenosine receptor A1) | IC50 [2] | Ki [2] | IC50 (Adenosine receptor A3) | IC50 (Cytochrome P450 2E1) | Ki (Cytochrome P450 2E1) | IC50 [3] | Ki [3]

C1CCC(C(CC2CCCCN2)C2CCCCC2)CC1 (centres undefined) [PERHEXILINE]
Not Active: IC50 (Melanocortin receptor 5) | IC50 [1] | Ki [1] | IC50 (Adenosine receptor A1) | IC50 [2] | Ki [2] | IC50 (Adenosine receptor A3) | IC50 (Cytochrome P450 2E1) | Ki (Cytochrome P450 2E1) | IC50 [3] | Ki [3]

CCOc1ccc(NC(C)=O)cc1 [PHENACETIN]
Not Active: IC50 (Melanocortin receptor 5) | IC50 [1] | Ki [1] | IC50 (Adenosine receptor A1) | IC50 [2] | Ki [2] | IC50 (Adenosine receptor A3) | IC50 (Cytochrome P450 2E1) | Ki (Cytochrome P450 2E1) | IC50 [3] | Ki [3]

Cc1ccc(N(CC2=NCCN2)c2cccc(O)c2)cc1 [PHENTOLAMINE]
Not Active: IC50 (Melanocortin receptor 5) | IC50 [1] | Ki [1] | IC50 (Adenosine receptor A1) | IC50 [2] | Ki [2] | IC50 (Adenosine receptor A3) | IC50 (Cytochrome P450 2E1) | Ki (Cytochrome P450 2E1) | IC50 [3] | Ki [3]

CNNCc1ccc(C(=O)NC(C)C)cc1 [PROCARBAZINE]
Not Active: IC50 (Melanocortin receptor 5) | IC50 [1] | Ki [1] | IC50 (Adenosine receptor A1) | IC50 [2] | Ki [2] | IC50 (Adenosine receptor A3) | IC50 (Cytochrome P450 2E1) | Ki (Cytochrome P450 2E1) | IC50 [3] | Ki [3]

CN(C)CCCN1c2ccccc2Sc2ccccc21 [PROMAZINE]
Not Active: IC50 (Melanocortin receptor 5) | IC50 [1] | Ki [1] | IC50 (Adenosine receptor A1) | IC50 [2] | Ki [2] | IC50 (Adenosine receptor A3) | IC50 (Cytochrome P450 2E1) | Ki (Cytochrome P450 2E1) | IC50 [3] | Ki [3]
